Data on 76 compounds can be found in paper PMC12040169 (PLOS Biology, 2025).

Broadly, the viability is a read-out of living cells in per cent, often relative to untreated cells.

The data set is described as follows: in vitro. Conditions: human, hela cells, % viability.
For the compound `CCCc1n[nH]c(=S)n1CC(=O)Nc1cc(NC(=O)C2CC2)ccc1C` [CBK297740], the viability at 28.5 h, 10 µM was 106%. The same measure for `CCCc1n[nH]c(=S)n1CC(=O)Nc1cccc(-n2ncc(C(=O)OCC)c2C)c1` [CBK297746]: 90.2%. With `CC(=O)N1CCC(NC(=O)c2cccc(C(N)=O)c2)CC1` [CBK297747] the figure was 115%. With `Cc1ccc(C(=O)NCc2cccc(COCc3ccco3)c2)cc1F` [CBK297750] the figure was 83.5%; with `Cc1ccc(C(=O)NCC(O)c2ccc(F)cc2F)cn1` (stereo not shown) [CBK297751], 89.8%.

Turning to `Cc1ccccc1OCC(=O)NCC1(N2CCCCC2)CCCCC1` [CBK297752], the viability at 28.5 h, 10 µM worked out at 89.5%. As for `O=C(Nc1ccc(N2CCCCC2)c2ccncc12)c1cccc(-n2cnnn2)c1` [CBK297754], the viability at 28.5 h, 10 µM was 85.8%. With `COc1cc(CNC(=O)c2cccnc2Sc2ccc(Cl)cc2)ccn1` [CBK297755] the figure was 108%; with `CCn1c(SCc2cc(C)no2)nnc1C1CC1` [CBK297758], 102%; with `CC1CC(C)CN(C(=O)c2ccccc2NC(=O)C2CC(=O)Nc3ccccc32)C1` (stereo not shown) [CBK297760], 81.8%. Turning to `C=CCn1c(-c2sc(NC(=O)c3ccc(CNC(=O)NC(C)C)cc3)nc2C)n[nH]c1=S` [CBK297764], the viability at 28.5 h, 10 µM worked out at 111%. With `O=C1CC(C(=O)Nc2ccccn2)c2ccccc2N1` (stereo not shown) [CBK297771] the figure was 101%; with `O=C(Nc1ccnn1Cc1ccccc1)C1CC(c2cccc(F)c2)=NO1` (stereo not shown) [CBK297772], 112%. As for `CN(C)c1ncccc1CNC(=O)c1ccccn1` [CBK297774], the viability at 28.5 h, 10 µM came to 81.5%. With `Cc1ccc(NS(=O)(=O)c2cccc(C(=O)NS(=O)(=O)c3ccc(F)cc3F)c2)cc1` [CBK297776] the figure was 70.5%.

Turning to `CC(=O)Nc1ccc(C(=O)NC(c2cccs2)C2CCCC2)cc1` (stereo not shown) [CBK297777], the viability at 28.5 h, 10 µM came to 84.1%. The same measure for `CN(C(=O)c1cc(O)nc2ccccc12)c1nccs1` [CBK297778]: 105%. In the case of `CCC(CNC(=O)c1cc(-c2ccco2)nc2c(C(N)=O)ncn12)c1ccccc1` (stereo not shown) [CBK297779], the viability at 28.5 h, 10 µM stood at 94.2%.

Regarding `COc1ccc(C2CC(c3ccc(NS(C)(=O)=O)cc3)=NN2C(=O)CCCC(=O)O)cc1` (stereo not shown) [CBK297780], the viability at 28.5 h, 10 µM was determined as 116%. The same measure for `COc1ccc(OC)c(C2CC(c3ccc(NS(C)(=O)=O)cc3)=NN2C(=O)CCC(=O)O)c1` (stereo not shown) [CBK297781]: 107%. With `CCN(CC)S(=O)(=O)c1ccc(C)c(NS(=O)(=O)c2cc(C(=O)O)n(C)c2)c1` [CBK297782] the figure was 99.5%; with `C=CCn1c(Cc2csc(NC(=O)c3cnc(SC)n3-c3ccccc3)n2)n[nH]c1=S` [CBK297786], 84.3%; with `CC(=O)Nc1ccc(CNc2ccc(C#N)cn2)cc1` [CBK297790], 97.7%. Take `CN(c1ccccc1)S(=O)(=O)c1cccc(NC(=O)Cc2csc(-c3ccco3)n2)c1` [CBK297792]: the viability at 28.5 h, 10 µM was 75.9%.

As for `O=C(c1ccc(-n2cccn2)nc1)N1CCN(c2ccccc2O)CC1` [CBK297794], the viability at 28.5 h, 10 µM worked out at 83.8%. The same measure for `CC1CC1C(=O)NCC(=O)Nc1nc2ccc(OC(F)(F)F)cc2s1` (stereo not shown) [CBK297874]: 98.3%; for `CC(C)C(NC(=O)CSc1n[nH]c(=O)n1Cc1ccccc1)c1ccc2c(c1)OCCCO2` (stereo not shown) [CBK297875]: 106%. The same measure for `CN(Cc1ccc2c(c1)OCCO2)C(=O)CSc1n[nH]c(=O)n1Cc1ccccc1` [CBK297876]: 82.1%; for `COc1ccc(-c2nnc(SC(C)C(=O)Nc3cc(C)no3)n2CC2CCCO2)cc1` (stereo not shown) [CBK297879]: 84.8%; for `CCn1c(-c2ccc3c(c2)OCCO3)cnc1SCC(=O)c1cc(C)[nH]c1C` [CBK297880]: 89.4%. For `COc1cc(C=Cc2nc3cc(Cl)ccc3s2)ccc1OCC(=O)O` [CBK297886], the viability at 28.5 h, 10 µM was 96.4%. The same measure for `Cc1ccc(-c2n[nH]c(=S)n2CC(=O)N2CCC(C(=O)Nc3ccc4c(c3)OCO4)CC2)cc1` [CBK297887]: 82%. Turning to `C=CCn1c(Cc2csc(NC(=O)CCc3nc4ccccc4c(=O)[nH]3)n2)n[nH]c1=S` [CBK297888], the viability at 28.5 h, 10 µM was found to be 88.8%.

Consider `Cc1ccc(C(=O)N2CC=C(c3c[nH]c4ncccc34)CC2)cn1` [CBK297889], for which the viability at 28.5 h, 10 µM came out at 103%. The same measure for `C=CCn1c(Cc2csc(NC(=O)c3cccc(NC(C)=O)c3)n2)n[nH]c1=S` [CBK297891]: 83.4%; for `CC1CCN(Cc2csc(NC(=O)CCn3c(-c4cccs4)n[nH]c3=S)n2)CC1` [CBK297892]: 92.2%; for `CCOc1ccc(-c2n[nH]c(=S)n2CCC(=O)N2CCCN(Cc3ccc(C#N)cc3)CC2)cc1` [CBK297893]: 95.8%.

Take `Cc1cccc(NC(=O)CSCc2ccc(Cl)s2)n1` [CBK297895]: the viability at 28.5 h, 10 µM was 90.4%. The same measure for `COc1ccc(C(NC(=O)c2cc3ccccc3[nH]2)C2CC2)cc1` (stereo not shown) [CBK297896]: 97.9%; for `O=C(OCc1nnsc1Cl)c1ccc(C(=O)c2ccccc2)cc1` [CBK297897]: 109%; for `CC(C)C(NC(=O)CN1CSCC1=O)c1ccc(C(C)(C)C)cc1` (stereo not shown) [CBK297899]: 88.6%.

In the case of `COc1ccc(C(CNC(=O)Cn2c(-c3cccc(C)c3)n[nH]c2=S)N2CCOCC2)cc1OC` (stereo not shown) [CBK297900], the viability at 28.5 h, 10 µM turned out to be 88.2%. With `C=CCn1c(Cc2csc(NC(=O)c3cc(S(=O)(=O)NC)ccc3C)n2)n[nH]c1=S` [CBK297903] the figure was 105%.

`Cc1ccc(-c2n[nH]c(=S)n2CCC(=O)N(C)Cc2ccc(N3CCCCC3)cc2)cc1` [CBK297904]: the viability at 28.5 h, 10 µM is 106%. In the case of `C=CCn1c(-c2sc(NC(=O)CNC(=O)C(C)(C)C)nc2C)n[nH]c1=S` [CBK297907], the viability at 28.5 h, 10 µM amounted to 91.2%. In the case of `Cc1[nH]c2ccc(C(=O)N(Cc3ccccc3)C3CC3)cc2c1C` [CBK297913], the viability at 28.5 h, 10 µM is 89.1%. Take `Cc1sc2nc(C(C)Nc3ccc4[nH]c(=O)[nH]c4c3)[nH]c(=O)c2c1C` (stereo not shown) [CBK297915]: the viability at 28.5 h, 10 µM came out at 80.6%.

Take `Cc1cc(C(=O)C(C)Sc2nnc(N)s2)c(C)n1-c1ccccc1` (stereo not shown) [CBK297916]: the viability at 28.5 h, 10 µM amounted to 87%. Take `COc1ccc(-c2n[nH]c(=S)n2CCC(=O)NCc2ccc(CN3CCCCC3)cc2)cc1` [CBK297918]: the viability at 28.5 h, 10 µM is 94.5%.

`O=C(NCc1ccccc1)C1CCN(C(=O)Cc2c(F)cccc2Cl)CC1` [CBK297919]: the viability at 28.5 h, 10 µM was determined as 96.6%. The same measure for `CC(OC(=O)Cc1ccccc1[N+](=O)[O-])c1nnnn1-c1ccccc1` (stereo not shown) [CBK297920]: 97.6%.

Turning to `Cc1ccc(C2=NN(C(=O)CNc3cc(F)cc(F)c3)C(c3ccco3)C2)cc1` (stereo not shown) [CBK297922], the viability at 28.5 h, 10 µM came out at 94.2%. With `Cc1ccc2nc(COC(=O)c3ccc(Cn4nnc5ccccc54)cc3)cn2c1` [CBK297923] the figure was 96.6%; with `O=C(Cc1c[nH]c2ccccc12)N1CCCC1c1ccc(F)cc1` (stereo not shown) [CBK297927], 105%; with `CC(C)Cc1ccc(S(=O)(=O)Nc2ccc(C(=O)O)cc2)cc1` [CBK297930], 98.4%.

Turning to `CC1CN(S(=O)(=O)c2ccc(NC(=O)C3CC(=O)Nc4cc(F)ccc43)cc2)CC(C)O1` (stereo not shown) [CBK297933], the viability at 28.5 h, 10 µM is 91.4%. The same measure for `Cc1cc(C(=O)CSc2nncs2)c(C)n1C(C)c1ccccc1` (stereo not shown) [CBK297934]: 86.8%; for `O=C(Cc1csc(-c2ccsc2)n1)Nc1nc2c(s1)CCC2` [CBK297935]: 96.8%; for `CC(NC(=O)c1cc2ccccc2c(=O)[nH]1)c1ccc(-c2ccccc2)cc1` (stereo not shown) [CBK297936]: 86.4%.

On to `CCCNC(=O)C(C)NC(=O)C1=Cc2ccccc2OC1` (stereo not shown) [CBK297937], for which the viability at 28.5 h, 10 µM was determined as 95.2%. As for `Cc1[nH]c(=O)[nH]c(=O)c1CCC(=O)OCc1nccn1Cc1ccccc1` [CBK297939], the viability at 28.5 h, 10 µM was 82.1%. The same measure for `CC(C)c1ccc(NS(=O)(=O)c2ccc(F)c(C(=O)O)c2)cc1` [CBK297940]: 104%; for `COc1ccc(C)cc1N(C(=O)c1ccccn1)c1nc2ccccc2s1` [CBK297944]: 97.7%; for `Cc1nnnn1C(Cc1cccc(F)c1)C(=O)N1CC(C)CC(C)C1` (stereo not shown) [CBK298262]: 96.3%. Consider `CN(Cc1cc(Br)cs1)C(=O)CCc1c[nH]c2ccccc12` [CBK298268], for which the viability at 28.5 h, 10 µM is 108%. Take `COc1cccc(C(CNS(=O)(=O)c2ccc3c(c2)OCCCO3)N(C)C)c1` (stereo not shown) [CBK298270]: the viability at 28.5 h, 10 µM was 98.2%. Consider `COc1cccc(-c2nc(-c3ccc4[nH]c(=O)[nH]c4c3)cs2)c1OC` [CBK298271], for which the viability at 28.5 h, 10 µM stood at 108%.

For `CN(C)c1nc(Cl)c(C=Cc2cc(C(=O)O)c3ccccc3n2)s1` [CBK298272], the viability at 28.5 h, 10 µM was 110%. The same measure for `CN1CCN(c2cc(CNC(=O)c3ccnc(Cl)c3)ccn2)CC1` [CBK298275]: 92.4%; for `CN(Cc1ccc2c(c1)OCO2)C(=O)c1cnn2c(-c3ccccc3)ccnc12` [CBK298276]: 95%.

`Cc1ccccc1-c1nnc(-c2ccc(C(=O)N=c3sccn3C)cc2)o1` [CBK298283]: the viability at 28.5 h, 10 µM was found to be 97.1%. As to `CC(NC(=O)c1cc(-c2ccccc2)nc2ccccc12)c1cccc(S(N)(=O)=O)c1` (stereo not shown) [CBK298285], the viability at 28.5 h, 10 µM was found to be 79.5%. On to `Cc1nccn1-c1ccc(NC(=O)C2CC(=O)N(C3CCCC3)C2)cc1F` (stereo not shown) [CBK298286], for which the viability at 28.5 h, 10 µM is 83.1%.

As to `CCc1nc(NC(=O)c2ccnc(Cl)c2)sc1C` [CBK298287], the viability at 28.5 h, 10 µM was found to be 101%. The same measure for `CN(c1ccccc1C(N)=O)S(=O)(=O)c1ccc(S(=O)(=O)C(F)F)cc1` [CBK298289]: 88.3%; for `CCCCCNC(=O)C1CCN(Cn2c(=O)oc3cc(Cl)ccc32)CC1` [CBK298290]: 86.3%.
